# Measurements as given in patent US6413499B1, “Methods and kits for maxillary dental anesthesia by means of a nasal deliverable anesthetic” (priority 2000, dated 2002).
# Where a name gives a salt, the structure may show the parent alone.
# System: maxillary dental arch
# Test: nasal deliverable anesthetizing composition applied to a patient's nasal cavity
# Type: in vivo
# Conditions: for absorption of the anesthetic with vasoconstrictor: compared to an anesthetic composition applied to nasal tissue not treated with a vasoconstrictor, HCl
# Excerpt: As set forth above, the inventive nasal deliverable anesthetic compositions are delivered to the patient through the nasal cavity. This is done by applying the anesthetic composition to the lateral wall or membrane of the nasal cavity, where it can be absorbed into the nasal tissue, including nerves located within the nasal tissue. In the case where a delivery device having an extension tube is used, good results have been obtained by inserting approximately 15 mm of the tube into the patient's nasal cavity through the nostril. A nasal speculum may advantageously be used to assist in dilating the patient's nostril preparatory to inserting the extension tube so as to facilitate placement of the tube in a desired location within the patient's nasal cavity.
# As discussed above with respect to FIG. 1, the nasal cavity includes a number of nerves that are responsible for transmitting pain and pressure impulses from the maxillary arch and palate to the brain. Most of these nerves collect at and below the maxillary nerve. Due to the location of the various nerves that collect at or below the maxillary nerve it may be possible to provide various degrees of anesthesia. Control of dosage volume, through control of the number of substance dispensing, can be utilized to determine the anatomical structures to be anesthetized. Minimal dosage volumes tend to yield anesthesia to at least a portion of the maxillary dentition, while greater anesthetic dosages yield anesthesia to the entire maxillary arch.
# The tetracaine portion included an associated chlorobutanol preservative. The aqueous solution included sodium chloride in water.
compound,measurement,setting,value
Cc1cc(C(C)(C)C)c(O)c(C)c1CC1=NCCN1 [Oxymetazoline HCl],anesthetic effect of the anesthetic with vasoconstrictor,compared to a lidocaine composition applied to nasal tissue not treated with a vasoconstrictor,enhanced the anesthetic effect of the lidocaine
same,absorption of the anesthetic with vasoconstrictor,,enhanced the absorption of the tetracaine
same,absorption of the anesthetic with vasoconstrictor,listed as oxymetazoline HCl,enhanced the absorption of the benzocaine
